Measurements published in US20240271133A1, “KRAB-Containing Zinc Finger Protein And Cancer” (ECOLE POLYTECHNIQUE FEDERALE DE LAUSANNE (EPFL), priority 2021, published 2024).

Test system: U2932 KD cells
Protocol: pLKO.puro shRNA vectors were used for ZNF586, ZNF587 and ZNF417 knock downs. […] The short hairpin RNAs (shRNAs) targeting the sequence ZNF586 (TRCN0000015373 and TRCN0000015376) were obtained from Sigma-Aldrich. Lentiviral vectors production protocols are detailed at http://tronolab.epfl.ch. The cell proliferation after LV transduction was determined using the 3-[4,5-dimethylthiazol-2-yl]-2,5-diphenyltetrazolium bromide (MTT) assay. The cells were transduced at a multiplicity of infection (MOI) of 20 in every experiment.

Compound	cytotoxic interaction of drug with ZNF587/417 depletion
Nc1ncn([C@H]2C[C@H](O)[C@@H](CO)O2)c(=O)n1 [decitabine]	cytotoxic synergism
C=CC(=O)N1CCC[C@@H](n2nc(-c3ccc(Oc4ccccc4)cc3)c3c(N)ncnc32)C1 [ibrutinib]	cytotoxic synergism
